According to ChEMBL document CHEMBL1201862, “PubChem BioAssay data set” (2004):
The source made the active and inactive calls.

Tests used:
[1] = biological target: T1, Tyrosine-protein kinase receptor TYRO3 (Homo sapiens, UniProt Q06418); type: functional;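 also: TYRO3 value obtained as one member of a kinome-wide profiling panel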
T1 sequence (Q06418 whole entry): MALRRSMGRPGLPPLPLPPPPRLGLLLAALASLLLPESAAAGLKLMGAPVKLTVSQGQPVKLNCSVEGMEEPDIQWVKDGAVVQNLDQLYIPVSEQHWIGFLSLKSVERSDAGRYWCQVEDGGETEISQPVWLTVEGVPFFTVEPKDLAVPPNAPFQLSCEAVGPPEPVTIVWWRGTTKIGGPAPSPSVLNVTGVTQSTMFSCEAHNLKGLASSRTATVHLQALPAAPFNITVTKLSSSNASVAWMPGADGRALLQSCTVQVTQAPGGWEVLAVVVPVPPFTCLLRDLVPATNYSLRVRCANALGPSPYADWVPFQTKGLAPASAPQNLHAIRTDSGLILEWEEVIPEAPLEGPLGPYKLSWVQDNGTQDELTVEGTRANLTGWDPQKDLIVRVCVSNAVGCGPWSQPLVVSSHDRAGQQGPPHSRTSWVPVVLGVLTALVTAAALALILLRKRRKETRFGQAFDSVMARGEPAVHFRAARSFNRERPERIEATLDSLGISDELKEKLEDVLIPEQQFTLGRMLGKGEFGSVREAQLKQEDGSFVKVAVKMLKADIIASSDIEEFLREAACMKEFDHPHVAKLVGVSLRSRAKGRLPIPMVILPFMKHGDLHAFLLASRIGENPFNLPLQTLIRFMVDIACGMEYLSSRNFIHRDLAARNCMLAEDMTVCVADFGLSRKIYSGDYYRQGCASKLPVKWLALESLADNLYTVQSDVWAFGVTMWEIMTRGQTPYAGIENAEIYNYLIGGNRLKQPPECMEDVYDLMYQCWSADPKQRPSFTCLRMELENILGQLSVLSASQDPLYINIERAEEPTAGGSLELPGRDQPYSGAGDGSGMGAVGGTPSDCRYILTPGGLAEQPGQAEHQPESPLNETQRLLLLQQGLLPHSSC

[2] = biological target: Dual specificity tyrosine-phosphorylation-regulated kinase 1B (Homo sapiens, UniProt Q9Y463); test: Navigating the Kinome. Panel member name: DYRK1B; type: functional
Sequence of Dual specificity tyrosine-phosphorylation-regulated kinase 1B (Q9Y463 whole entry): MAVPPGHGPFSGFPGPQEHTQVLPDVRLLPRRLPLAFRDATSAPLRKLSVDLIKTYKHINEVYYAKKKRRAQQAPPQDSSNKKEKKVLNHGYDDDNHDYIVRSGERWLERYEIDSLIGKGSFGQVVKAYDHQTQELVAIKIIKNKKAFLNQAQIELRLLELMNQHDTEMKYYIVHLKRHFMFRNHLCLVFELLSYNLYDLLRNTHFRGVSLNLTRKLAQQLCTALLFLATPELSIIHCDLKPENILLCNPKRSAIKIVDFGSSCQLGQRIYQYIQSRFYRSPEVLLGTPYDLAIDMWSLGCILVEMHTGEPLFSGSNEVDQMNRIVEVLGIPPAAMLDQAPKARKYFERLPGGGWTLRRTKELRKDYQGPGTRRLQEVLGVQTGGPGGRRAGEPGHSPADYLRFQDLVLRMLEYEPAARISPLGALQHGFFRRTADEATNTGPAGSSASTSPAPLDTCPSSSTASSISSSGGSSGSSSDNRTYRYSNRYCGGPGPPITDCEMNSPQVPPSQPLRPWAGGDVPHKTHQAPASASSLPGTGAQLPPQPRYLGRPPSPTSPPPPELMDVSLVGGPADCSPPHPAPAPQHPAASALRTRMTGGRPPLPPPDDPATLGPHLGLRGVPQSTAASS

[3] = miR-122 activators in hepatoma reporter cells, dose response, cell-based, Huh7 psiCHECK-miR122, Renilla luciferase, cherry-picked (AID 651956); type: functional;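 also: huh7 hepatoma cells stably carrying a psiCHECK-2 miR-122 sensor plasmid; renilla luciferase signal reporting endogenous miR-122 activity after 48 h compound exposure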
[4] = HEK293T cytotoxicity, dose response, cytotoxicity control for miR-122 modulator project, cell-based, inhibitor set, cherry-pick, set 2 (AID 720697); type: functional
Paired box protein Pax-8 = Paired box protein Pax-8 (Homo sapiens, UniProt Q06710); test: inhibitors of PAX8-driven TPO luciferase reporter, dose response, RMG-I cells, cherry-pick (AID 687027); type: functional, cell-based;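 also: luciferase reporter driven by Pax8 target thyroperoxidase promoter measured by SteadyGlo luminescence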
Sequence of Paired box protein Pax-8 (Q06710 whole entry): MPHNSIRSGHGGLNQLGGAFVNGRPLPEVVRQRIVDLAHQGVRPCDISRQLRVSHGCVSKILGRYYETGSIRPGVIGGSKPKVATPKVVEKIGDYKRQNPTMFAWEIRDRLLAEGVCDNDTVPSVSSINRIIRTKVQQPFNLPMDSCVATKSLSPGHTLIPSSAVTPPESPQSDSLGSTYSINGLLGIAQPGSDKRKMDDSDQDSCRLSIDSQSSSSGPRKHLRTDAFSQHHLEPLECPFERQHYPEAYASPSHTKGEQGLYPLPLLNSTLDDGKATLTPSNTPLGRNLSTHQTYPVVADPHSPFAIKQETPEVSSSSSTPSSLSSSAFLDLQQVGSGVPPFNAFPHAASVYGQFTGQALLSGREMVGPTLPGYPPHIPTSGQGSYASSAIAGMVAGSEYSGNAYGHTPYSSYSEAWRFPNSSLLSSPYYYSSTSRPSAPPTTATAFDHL

[5] = IGROV1 ovarian cancer cell cytotoxicity, dose response, PAX8 inhibitor project, plate reader, dry powder samples (AID 743043); type: functional, cell-based; details: IGROV-1
[6] = NIH:OVCAR-3 ovarian cancer cell cytotoxicity, dose response, PAX8 inhibitor project, plate reader, dry powder samples (AID 743044); type: functional, cell-based
[7] = cytotoxicity in OVCAR8 ovarian cancer cells, dose response, PAX8 project, cell-based, plate reader, dry powder samples (AID 743197); type: functional; details: OVCAR-8
[8] = biological target: T2, Small ubiquitin-related modifier 1 (Homo sapiens, UniProt P63165); test: inhibitors of SUMO1 peptide binding, dose response, biochemical, fluorescence polarization, uHTS hits (AID 624382); type: functional; details: read-out: IC50_Mean
T2 sequence (P63165 whole entry): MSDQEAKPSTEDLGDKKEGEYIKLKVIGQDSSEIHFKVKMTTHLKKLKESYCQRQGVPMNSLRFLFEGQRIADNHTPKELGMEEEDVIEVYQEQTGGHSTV

[9] = biological target: T2, Small ubiquitin-related modifier 1; test: inhibitors of SUMO1 partner interactions, dose response, biochemical, FRET (AID 624383); type: functional; details: read-out: IC50_Mean

With O=c1[nH]c2cnc(Cl)nc2[nH]1 the Ki [1] was 79.4 µM (active) and the Ki [2] was 79.4 µM (active).

In the case of COc1ccc(-c2ccc3c(c2)O[C@H](CN(C)C(=O)Nc2ccccc2F)[C@H](C)CN([C@@H](C)CO)S3(=O)=O)cc1, the AC50 [3] is reported as 9.32 µM (active) and the AC50 [4] is reported as 0.5 µM (active).

In the case of CNC(=O)C[C@H]1CC[C@@H]2[C@H](COc3ccc(NS(=O)(=O)c4ccc(F)cc4)cc3C(=O)N2C)O1, the AC50 [3] is reported as 47.9 µM (active).

With C[C@@H]1CCCCO[C@@H](CN(C)C(=O)Nc2ccc(C(F)(F)F)cc2)[C@H](C)CN([C@H](C)CO)C(=O)c2cc(NS(=O)(=O)c3cccs3)ccc2O1 the AC50 (Paired box protein Pax-8) was 8.64 µM (active), the AC50 [5] was 45.5 µM (active) and the AC50 [6] was 20 µM (active). For the same compound, the AC50 [7] was 39.4 µM (active).

With O=C(N/N=C/c1cccnc1)c1cccc(NC(=O)c2ccc(Cl)cc2)c1 the IC50 [8] was > 66.6 µM (inactive) and the IC50 [9] was 5.33 µM (active).
